Measured values as given in paper PMC8285423, “In vitro efficacy of artemisinin-based treatments against SARS-CoV-2” (Scientific Reports, 2021).
Converted amounts (≈) assume the structure as drawn.

Experiments:
[1] = tested on: SARS-CoV-2/human/Denmark/DK-AHH1/2020; test: microbe, parasite or virus in culture; assay type: cell-based
[2] = Cell viability assay (CellTiter 96 AQueous One) in Huh7.5 cells; conditions: human
Method: (§1) To evaluate cytotoxic effects of the tested extracts, compounds, and diluents (DMSO), cell viability was monitored using the CellTiter 96 AQueous One Solution Cell Proliferation Assay (Promega, Madison, WI, USA). VeroE6 cells, Huh7.5 cells or A549-hACE2 cells were plated at 10,000, 8000 or 10,000 cells per well of flat bottom 96-well plates, respectively (Thermo Fisher Scientific, Roskilde, Denmark). The next day, medium was exchanged to contain specified concentrations of extracts or compounds or dilutions of DMSO adding 100 µL per well. Each concentration or dilution was tested in 3 replicates; at least 6 nontreated control wells were included in the assay. For VeroE6 cells and A549-hACE2 cells, after 48 ± 2 h, and for Huh7.5 cells, after 72 ± 2 h of incubation at 37 °C and 5% CO2, 20 µL CellTiter 96 AQueous One Solution Reagent was added per well and plates were incubated for 1.5 to 2 h at 37 °C and 5% CO2, prior to recording absorbance at 492 nm using a FLUOstar OPTIMA 96-well plate reader (BMG LABTECH, Offenburg, Germany). Absorbance recorded in each well was related to the average absorbance of nontreated control wells to calculate the percentage of cell viability. Datapoints included in figures are means of triplicates from one independent experiment with SEM. Sigmoidal dose response curves were fitted and median cytotoxic concentration (CC50) values were calculated with GraphPad Prism 8.0.0 using a bottom constraint of 0 and the formula Y = Top/(1 + 10^((LogCC50-X) * HillSlope)) as further specified in Figures S5, S7, and S9.

[3] = tested on: SARS-CoV-2/human/Denmark/DK-AHH1/2020; test: microbe, parasite or virus in culture; assay type: cell-based; conditions: for EC50: Severe acute respiratory syndrome coronavirus 2, 48 h
[4] = tested on: SARS-CoV-2; test: Treatment assays summarised over different cell types (VeroE6, Huh7.5, A549-hACE2); assay type: cell-based; conditions: Severe acute respiratory syndrome coronavirus 2, VeroE6, Huh7.5, A549-hACE2 cells, read-out: range of 50% effective concentrations (EC50) in different cell types
[5] = tested on: SARS-CoV-2/human/Denmark/DK-AHH1/2020; test: Concentration–response treatment antiviral assay in VeroE6 cells (spike immunostaining); assay type: cell-based; conditions: for EC50: Severe acute respiratory syndrome coronavirus 2, Vero C1008; for concentration at which almost / close to complete virus inhibition was achieved: treatment assay
[6] = Cell viability assay (CellTiter 96 AQueous One) in A549-hACE2 cells; assay type: cell-based; conditions: human, no infection
[7] = tested on: SARS-CoV-2/human/Denmark/DK-AHH1/2020; test: Concentration–response pretreatment antiviral assay in VeroE6 cells (spike immunostaining); assay type: cell-based; conditions: for EC50: Severe acute respiratory syndrome coronavirus 2, Vero C1008, added 1.5 h prior to infection, 2-day incubation
[8] = in vitro; conditions: African green monkey
Method: as §1

[9] = tested on: SARS-CoV-2/human/Germany/BavPat 1/2020; test: Plaque reduction antiviral assay (pretreatment) in VeroE6 cells; assay type: cell-based; conditions: addition prior to virus addition
[10] = Cell viability assay (CellTiter 96 AQueous One) in VeroE6 cells; conditions: African green monkey
Method: as §1

[11] = tested on: SARS-CoV-2 isolate from Wuhan; design: method as in earlier work; conditions: VeroE6 cells, assay terminated 24 h post infection, ref 22 (Cao et al.); cited from earlier work
[12] = animal studies; single dose; cited from earlier work
[13] = tested on: SARS-CoV-2/human/Denmark/DK-AHH1/2020; test: Time-of-addition experiment with artesunate in A549-hACE2 cells; assay type: cell-based; conditions: for inhibition at 14 µg/mL: read-out: inhibition of viral infection
[14] = VeroE6 cells, added 1 h post infection, 2-day incubation, read-out: EC50 Treatment assay
[15] = Severe acute respiratory syndrome coronavirus 2, 72 h, Huh7.5 cells, treatment assay, added directly after inoculation, 3-day incubation, read-out: EC50
[16] = A549-hACE2 cells, treatment assay, added directly after inoculation, 2-day incubation, read-out: EC50

Compound | CC50 at 72 h [2] [µg/mL] | EC50 [4] [µg/mL] | EC50 [5, 14] [µg/mL] | concentration at which almost / close to complete virus inhibition was achieved ([5]; VeroE6 cells) [µg/mL] | CC50 at 48 h [6] [µg/mL] | EC50 [7] [µg/mL] | EC50 [1, 15] [µg/mL] | EC50 [3, 16] [µg/mL] | CC50 at 48 h [10] [µg/mL] | also measured
CO[C@H]1O[C@@H]2O[C@@]3(C)CC[C@H]4[C@H](C)CC[C@@H]([C@H]1C)[C@@]24OO3 [Artemether] | 127 (≈ 426 µM) | 53 to 98 (≈ 178 to 328 µM) | 98 | ≥ 153 | 380 (≈ 1270 µM) | 147 (≈ 493 µM) | – | – | – | EC50 ([1]; Severe acute respiratory syndrome coronavirus 2, Huh7.5, 72 h): 64 µg/mL (≈ 214 µM); inhibition at 65 µg/mL ([1]; Severe acute respiratory syndrome coronavirus 2, Huh7.5, read-out: virus inhibition): 56%; concentration with close to complete virus inhibition ([3]; A549-hACE2 cells, treatment assay): 92 µg/mL; EC50 [3]: 53 µg/mL (≈ 178 µM); inhibition at 153 µg/mL ([7]; Severe acute respiratory syndrome coronavirus 2, Vero C1008, pretreatment assay, 153 µg/mL, read-out: virus inhibition): 52%; CC50 at 48 h [8]: 360 µg/mL (≈ 1210 µM)
C[C@@H]1CC[C@H]2[C@@H](C)C(=O)O[C@@H]3O[C@@]4(C)CC[C@@H]1[C@]32OO4 [Artemisinin] | 5070 (≈ 17900 µM) | – | 151 | 1208 | 1530 (≈ 5410 µM) | 238 (≈ 843 µM) | > 208 | 168 (≈ 595 µM) | 8220 (≈ 29100 µM) | virus inhibition ([1]; Huh7.5 cells, treatment assay, highest evaluated (non-cytotoxic) concentration 208 µg/mL): no significant virus inhibition; inhibition at 208 µg/mL ([1]; Severe acute respiratory syndrome coronavirus 2, Huh7.5 cells, treatment assay, highest evaluated (non-cytotoxic) concentration 208 µg/mL): < 50%; effect on plaque formation (in words) [9]: little antiviral activity; concentration at which almost / close to complete virus inhibition was achieved ([7]; pretreatment assay): 893 µg/mL
C[C@H]1[C@H](OC(=O)CCC(=O)O)O[C@@H]2O[C@@]3(C)CC[C@H]4[C@H](C)CC[C@@H]1[C@@]24OO3 [Artesunate] | 93 (≈ 242 µM) | 7 to 12 (≈ 18.2 to 31.2 µM) | 7 | 15 | 27 (≈ 70.2 µM) | – | 11 (≈ 28.6 µM) | 12 (≈ 31.2 µM) | 41 (≈ 107 µM) | EC50 [11]: 13 µM; concentration with close to complete virus inhibition ([1]; Huh7.5 cells, treatment assay): 22 µg/mL; tissue concentrations (lung, kidney, intestine, spleen) versus plasma concentrations [12]: several-fold higher; inhibition of viral infection ([13]; 14 µg/mL, added 0 h post inoculation, present during the 2 h viral infection phase): did not result in inhibition; inhibition at 14 µg/mL ([13]; Severe acute respiratory syndrome coronavirus 2, added 2 h post inoculation): ≥ 80%; inhibition at 14 µg/mL ([13]; Severe acute respiratory syndrome coronavirus 2, added 4 h post inoculation): ≥ 80%; inhibition at 14 µg/mL ([13]; Severe acute respiratory syndrome coronavirus 2, added 6 h post inoculation): ≥ 80%; inhibition at 14 µg/mL ([3]; Severe acute respiratory syndrome coronavirus 2, A549-hACE2 cells, treatment assay, highest evaluated concentration 14 µg/mL): 63%; EC50 ([5]; VeroE6 treatment assay, read-out: EC50): 18 µM; inhibition at 15 µg/mL ([7]; Severe acute respiratory syndrome coronavirus 2, Vero C1008, pretreatment assay, 15 µg/mL (highest evaluated concentration), read-out: virus inhibition): 69%
